From US20210267204A1, “MICROBIOCIDAL OXADIAZOLE DERIVATIVES” (SYNGENTA CROP PROTECTION AG, priority 2018, published 2021)

What was measured:
[1] = system: Puccinia recondita f. sp. tritici; experiment: Fungicidal activity against Puccinia recondita f. sp. tritici / wheat / leaf disc preventative (brown rust); format: in vivo; details: foliar, 200 ppm in the applied formulation, wheat leaf segments cv. Kanzler, inoculated 1 day after application, assessed 7 to 9 days after application, compared to untreated, read-out: disease control
Procedure: Leaf disks or leaf segments of various plant species are cut from plants grown in a greenhouse. The cut leaf disks or segments are placed in multiwell plates (24-well format) onto water agar. The leaf disks are sprayed with a test solution before (preventative) or after (curative) inoculation. Compounds to be tested are prepared as DMSO solutions (max. 10 mg/mL) which are diluted to the appropriate concentration with 0.025% Tween20 just before spraying. The inoculated leaf disks or segments are incubated under defined conditions (temperature, relative humidity, light, etc.) according to the respective test system. A single evaluation of disease level is carried out 3 to 14 days after inoculation, depending on the pathosystem. Percent disease control relative to the untreated check leaf disks or segments is then calculated. Wheat leaf segments cv. Kanzler were placed on agar in multiwell plates (24-well format) and sprayed with the formulated test compound diluted in water. The leaf disks were inoculated with a spore suspension of the fungus 1 day after application. The inoculated leaf segments were incubated at 19° C. and 75% relative humidity (rh) under a light regime of 12 hours light/12 hours darkness in a climate cabinet and the activity of a compound was assessed as percent disease control compared to untreated when an appropriate level of disease damage appears in untreated check leaf segments (7 to 9 days after application). The following compounds at 200 ppm in the applied formulation give at least 80% disease control in this test when compared to untreated control leaf disks under the same conditions, which show extensive disease development.

[2] = system: Puccinia recondita f. sp. tritici; experiment: Fungicidal activity against Puccinia recondita f. sp. tritici / wheat / leaf disc curative (brown rust); format: in vivo; details: foliar, 200 ppm in the applied formulation, wheat leaf segments cv. Kanzler, applied 1 day after inoculation, assessed 6 to 8 days after application, compared to untreated, read-out: disease control
Procedure: Leaf disks or leaf segments of various plant species are cut from plants grown in a greenhouse. The cut leaf disks or segments are placed in multiwell plates (24-well format) onto water agar. The leaf disks are sprayed with a test solution before (preventative) or after (curative) inoculation. Compounds to be tested are prepared as DMSO solutions (max. 10 mg/mL) which are diluted to the appropriate concentration with 0.025% Tween20 just before spraying. The inoculated leaf disks or segments are incubated under defined conditions (temperature, relative humidity, light, etc.) according to the respective test system. A single evaluation of disease level is carried out 3 to 14 days after inoculation, depending on the pathosystem. Percent disease control relative to the untreated check leaf disks or segments is then calculated. Wheat leaf segments cv. Kanzler are placed on agar in multiwell plates (24-well format). The leaf segments are then inoculated with a spore suspension of the fungus. Plates were stored in darkness at 19° C. and 75% relative humidity. The formulated test compound diluted in water was applied 1 day after inoculation. The leaf segments were incubated at 19° C. and 75% relative humidity under a light regime of 12 hours light/12 hours darkness in a climate cabinet and the activity of a compound was assessed as percent disease control compared to untreated when an appropriate level of disease damage appears in untreated check leaf segments (6 to 8 days after application). The following compounds at 200 ppm in the applied formulation give at least 80% disease control in this test when compared to untreated control leaf disks under the same conditions, which show extensive disease development.

[3] = system: Phakopsora pachyrhizi; experiment: Fungicidal activity against Phakopsora pachyrhizi / soybean / leaf disc preventative (Asian soybean rust); format: in vivo; details: foliar, 200 ppm in the applied formulation, soybean leaf disks, inoculated one day after application, assessed 12 to 14 days after application, compared to untreated, read-out: disease control
Procedure: Leaf disks or leaf segments of various plant species are cut from plants grown in a greenhouse. The cut leaf disks or segments are placed in multiwell plates (24-well format) onto water agar. The leaf disks are sprayed with a test solution before (preventative) or after (curative) inoculation. Compounds to be tested are prepared as DMSO solutions (max. 10 mg/mL) which are diluted to the appropriate concentration with 0.025% Tween20 just before spraying. The inoculated leaf disks or segments are incubated under defined conditions (temperature, relative humidity, light, etc.) according to the respective test system. A single evaluation of disease level is carried out 3 to 14 days after inoculation, depending on the pathosystem. Percent disease control relative to the untreated check leaf disks or segments is then calculated. Soybean leaf disks are placed on water agar in multiwell plates (24-well format) and sprayed with the formulated test compound diluted in water. One day after application leaf discs are inoculated by spraying a spore suspension on the lower leaf surface. After an incubation period in a climate cabinet of 24-36 hours in darkness at 20° C. and 75% rh leaf disc are kept at 20° C. with 12 hours light/day and 75% rh. The activity of a compound is assessed as percent disease control compared to untreated when an appropriate level of disease damage appears in untreated check leaf disks (12 to 14 days after application). The following compounds at 200 ppm in the applied formulation give at least 80% disease control in this test when compared to untreated control leaf disks under the same conditions, which show extensive disease development.

[4] = system: Glomerella lagenarium (Colletotrichum lagenarium); experiment: Fungicidal activity against Glomerella lagenarium (Colletotrichum lagenarium) liquid culture / cucumber / preventative (anthracnose); format: cell-based; details: Colletotrichum orbiculare; 20 ppm in the applied formulation; liquid culture in PDB, 24° C.; 3 to 4 days after application; compared to untreated control; read-out: disease control (inhibition of growth measured photometrically)
Procedure: Mycelia fragments or conidia suspensions of a fungus prepared either freshly from liquid cultures of the fungus or from cryogenic storage, are directly mixed into nutrient broth. DMSO solutions of the test compound (max. 10 mg/mL) are diluted with 0.025% Tween20 by a factor of 50 and 10 μL of this solution is pipetted into a microtiter plate (96-well format). The nutrient broth containing the fungal spores/mycelia fragments is then added to give an end concentration of the tested compound. The test plates are incubated in the dark at 24° C. and 96% relative humidity (rh). The inhibition of fungal growth is determined photometrically after 2 to 7 days, depending on the pathosystem, and percent antifungal activity relative to the untreated check is calculated. Conidia of the fungus from cryogenic storage are directly mixed into nutrient broth (PDB—potato dextrose broth). After placing a (DMSO) solution of test compound into a microtiter plate (96-well format), the nutrient broth containing the fungal spores is added. The test plates are incubated at 24° C. and the inhibition of growth is measured photometrically 3 to 4 days after application. The following compounds at 20 ppm in the applied formulation give at least 80% disease control in this test when compared to untreated control under the same conditions, which show extensive disease development.

SMILES | melting point [°C] | pest or weed control at 200 ppm [1] [%] | pest or weed control at 200 ppm [2] [%] | pest or weed control at 200 ppm [3] [%] | inhibition at 20 ppm [4] [%]
FC(F)(F)c1nc(-c2ccc(Cn3ccc(C(=S)NC4CC4)n3)cc2)no1 [Compound 1.3, N-cyclopropyl-1-[[4-[5-(trifluoromethyl)-1,2,4-oxadiazol-3-yl]phenyl]methyl] pyrazole-3-carbothioamide] |  | ≥ 80 | ≥ 80 | ≥ 80 | ≥ 80
CN(C)C(=S)c1ncn(Cc2ccc(-c3noc(C(F)(F)F)n3)cc2)n1 [Compound 1.2, N,N-dimethyl-1-[[4-[5-(trifluoromethyl)-1,2,4-oxadiazol-3-yl]phenyl]methyl]-1,2,4-triazole-3-carbothioamide] |  | ≥ 80 | ≥ 80 | ≥ 80 | ≥ 80
CCCNC(=S)c1nccn1Cc1ccc(-c2noc(C(F)(F)F)n2)s1 [Compound 1.15, N-propyl-1-[[5-[5-(trifluoromethyl)-1,2,4-oxadiazol-3-yl]-2-thienyl]methyl] imidazole-2-carbothioamide] |  | ≥ 80 | ≥ 80 | ≥ 80 | ≥ 80
CNC(=S)c1cnn(C(C)c2ccc(-c3noc(C(F)(F)F)n3)s2)c1 (stereo not drawn) [Compound 1.9, N-methyl-1-[1-[5-[5-(trifluoromethyl)-1,2,4-oxadiazol-3-yl]-2-thienyl]ethyl]pyrazole-4-carbothioamide] |  | ≥ 80 | ≥ 80 | ≥ 80 | ≥ 80
FC(F)(F)c1nc(-c2ccc(Cn3ccnc3C(=S)NC3CC3)s2)no1 [Compound 1.11, N-cyclopropyl-1-[[5-[5-(trifluoromethyl)-1,2,4-oxadiazol-3-yl]-2-thienyl]methyl] imidazole-2-carbothioamide] |  | ≥ 80 | ≥ 80 | ≥ 80 | ≥ 80
CNC(=S)c1ncnn1Cc1ccc(-c2noc(C(F)(F)F)n2)cc1 [Compound 1.4, N-methyl-2-[[4-[5-(trifluoromethyl)-1,2,4-oxadiazol-3-yl]phenyl]methyl]-1,2,4-triazole-3-carbothioamide] |  | ≥ 80 | ≥ 80 | ≥ 80 | ≥ 80
CCONC(=S)c1ccn(Cc2ccc(-c3noc(C(F)(F)F)n3)s2)n1 [Compound 1.7, N-ethoxy-1-[[5-[5-(trifluoromethyl)-1,2,4-oxadiazol-3-yl]-2-thienyl]methyl]pyrazole-3-carbothioamide] |  | ≥ 80 | ≥ 80 | ≥ 80 | ≥ 80

The next lines start with results.

melting point [°C] | SMILES | pest or weed control at 200 ppm [1] [%] | pest or weed control at 200 ppm [2] [%] | pest or weed control at 200 ppm [3] [%] | inhibition at 20 ppm [4] [%]
170 to 172 | NC(=S)c1nccn1Cc1ccc(-c2noc(C(F)(F)F)n2)s1 [Compound 1.12, 1-[[5-[5-(trifluoromethyl)-1,2,4-oxadiazol-3-yl]-2-thienyl]methyl] imidazole-2-carbothioamide] | ≥ 80 | ≥ 80 | ≥ 80 | ≥ 80
75 to 83 | CC(c1ccc(-c2noc(C(F)(F)F)n2)s1)n1cc(C(=S)N2CCC2)cn1 (stereo not drawn) [Compound 1.10, azetidin-1-yl-[1-[1-[5-[5-(trifluoromethyl)-1,2,4-oxadiazol-3-yl]-2-thienyl]ethyl]pyrazol-4-yl]methanethione] | ≥ 80 | ≥ 80 | ≥ 80 | ≥ 80
112 to 118 | CN(C)C(=S)c1ncn(Cc2ccc(-c3noc(C(F)(F)F)n3)s2)n1 [Compound 1.8, N,N-dimethyl-1-[[5-[5-(trifluoromethyl)-1,2,4-oxadiazol-3-yl]-2-thienyl]methyl]-1,2,4-triazole-3-carbothioamide] | ≥ 80 | ≥ 80 | ≥ 80 | ≥ 80
118 to 122 | CNC(=S)c1ccn(Cc2ccc(-c3noc(C(F)(F)F)n3)s2)n1 [Compound 1.6, N-methyl-1-[[5-[5-(trifluoromethyl)-1,2,4-oxadiazol-3-yl]-2-thienyl]methyl]pyrazole-3-carbothioamide] | ≥ 80 | ≥ 80 | ≥ 80 | ≥ 80
165.5 to 167 | FC(F)(F)c1nc(-c2ccc(Cn3cc(CNC(=S)C4CC4)cn3)s2)no1 [Compound 1.13, N-[[1-[[5-[5-(trifluoromethyl)-1,2,4-oxadiazol-3-yl]-2-thienyl]methyl]pyrazol-4-yl]methyl] cyclopropane carbothioamide] | ≥ 80 | ≥ 80 | ≥ 80 | ≥ 80
159 to 164 | CNC(=S)c1ccnn1Cc1ccc(-c2noc(C(F)(F)F)n2)cc1 [Compound 1.1, N-methyl-2-[[4-[5-(trifluoromethyl)-1,2,4-oxadiazol-3-yl]phenyl]methyl] pyrazole-3-carbothioamide] | ≥ 80 | ≥ 80 | ≥ 80 | ≥ 80
135.5 to 140.3 | COCC(=S)NCc1cnn(Cc2ccc(-c3noc(C(F)(F)F)n3)s2)c1 [Compound 1.14, 2-methoxy-N-[[1-[[5-[5-(trifluoromethyl)-1,2,4-oxadiazol-3-yl]-2-thienyl]methyl]pyrazol-4-yl]methyl]thioacetamide] | ≥ 80 | ≥ 80 | ≥ 80 | ≥ 80
